From ChEMBL document CHEMBL1909046, “DrugMatrix in vitro pharmacology data”
pIC50, pKi: −log10 of the molar value.

Tests used:
[1] = target: T1, Alpha-1B adrenergic receptor (Rattus norvegicus, UniProt P15823); test: DRUGMATRIX: Alpha-1B adrenergic receptor radioligand binding (ligand: prazosin); type: cell membranes, Wistar, Liver, Membrane; conditions: Not Active = under 50% inhibition at 10 µM
T1 sequence (P15823 whole entry): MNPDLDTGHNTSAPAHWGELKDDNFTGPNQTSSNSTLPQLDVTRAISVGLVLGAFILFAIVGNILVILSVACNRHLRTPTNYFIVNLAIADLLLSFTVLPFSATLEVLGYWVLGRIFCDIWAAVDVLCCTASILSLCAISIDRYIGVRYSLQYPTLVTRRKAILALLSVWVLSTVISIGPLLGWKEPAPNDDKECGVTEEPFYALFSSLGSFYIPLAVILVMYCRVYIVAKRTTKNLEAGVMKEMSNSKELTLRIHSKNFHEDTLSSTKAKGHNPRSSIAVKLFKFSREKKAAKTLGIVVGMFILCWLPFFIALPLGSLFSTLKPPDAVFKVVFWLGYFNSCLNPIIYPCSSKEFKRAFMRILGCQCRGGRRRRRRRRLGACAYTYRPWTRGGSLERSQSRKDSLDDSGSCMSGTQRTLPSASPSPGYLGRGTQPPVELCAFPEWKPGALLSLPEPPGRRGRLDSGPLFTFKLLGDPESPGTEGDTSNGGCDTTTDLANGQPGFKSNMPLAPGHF

[2] = target: Beta-2 adrenergic receptor (Homo sapiens, UniProt P07550); test: DRUGMATRIX: Adrenergic beta2 radioligand binding (ligand: [3H] CGP-12177); type: cell membranes, CHO, Membrane; conditions: cho; Not Active = under 50% inhibition at 10 µM
Sequence of Beta-2 adrenergic receptor (P07550 whole entry): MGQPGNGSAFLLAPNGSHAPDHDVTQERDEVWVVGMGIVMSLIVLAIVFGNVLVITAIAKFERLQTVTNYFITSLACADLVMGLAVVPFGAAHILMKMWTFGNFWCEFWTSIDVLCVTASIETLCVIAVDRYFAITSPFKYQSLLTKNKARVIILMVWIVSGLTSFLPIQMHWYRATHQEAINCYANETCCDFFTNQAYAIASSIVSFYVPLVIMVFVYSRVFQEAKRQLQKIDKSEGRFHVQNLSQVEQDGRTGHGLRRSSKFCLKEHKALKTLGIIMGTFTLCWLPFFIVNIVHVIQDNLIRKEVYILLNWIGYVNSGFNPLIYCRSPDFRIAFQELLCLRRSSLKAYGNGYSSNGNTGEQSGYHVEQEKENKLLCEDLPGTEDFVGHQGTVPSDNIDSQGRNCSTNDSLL

[3] = DRUGMATRIX: Calcium Channel Type L, Benzothiazepine radioligand binding (ligand: [3H] Diltiazem); type: cell membranes, Rattus norvegicus, Wistar, Brain, Membrane; conditions: Not Active = under 50% inhibition at 10 µM
[4] = target: 5-hydroxytryptamine receptor 6 (Homo sapiens, UniProt P50406); type: cell membranes, HeLa, Membrane; conditions: for IC50: hela; for pIC50: read-out: IC50; for pKi: read-out: Ki; on all read-outs here: in other assays of this panel Not Active means under 50% inhibition at 10 µM
Sequence of 5-hydroxytryptamine receptor 6 (P50406 whole entry): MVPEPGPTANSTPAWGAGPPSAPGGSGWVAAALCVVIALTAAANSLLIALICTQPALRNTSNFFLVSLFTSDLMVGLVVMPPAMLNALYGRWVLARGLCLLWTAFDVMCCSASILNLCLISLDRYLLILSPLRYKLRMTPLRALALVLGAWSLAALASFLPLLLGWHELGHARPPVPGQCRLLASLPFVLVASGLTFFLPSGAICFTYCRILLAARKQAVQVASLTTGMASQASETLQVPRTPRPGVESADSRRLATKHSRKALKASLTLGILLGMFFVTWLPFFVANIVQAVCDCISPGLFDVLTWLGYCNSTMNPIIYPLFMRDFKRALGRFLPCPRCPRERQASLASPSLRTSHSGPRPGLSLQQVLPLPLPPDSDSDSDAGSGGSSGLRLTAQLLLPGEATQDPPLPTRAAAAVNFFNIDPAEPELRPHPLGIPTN

[5] = target: T2, Muscarinic acetylcholine receptor M2 (Homo sapiens, UniProt P08172); type: cell membranes, CHO-K1, Membrane; conditions: for IC50: cho-k1; on all read-outs here: in other assays of this panel Not Active means under 50% inhibition at 10 µM
T2 sequence (P08172 whole entry): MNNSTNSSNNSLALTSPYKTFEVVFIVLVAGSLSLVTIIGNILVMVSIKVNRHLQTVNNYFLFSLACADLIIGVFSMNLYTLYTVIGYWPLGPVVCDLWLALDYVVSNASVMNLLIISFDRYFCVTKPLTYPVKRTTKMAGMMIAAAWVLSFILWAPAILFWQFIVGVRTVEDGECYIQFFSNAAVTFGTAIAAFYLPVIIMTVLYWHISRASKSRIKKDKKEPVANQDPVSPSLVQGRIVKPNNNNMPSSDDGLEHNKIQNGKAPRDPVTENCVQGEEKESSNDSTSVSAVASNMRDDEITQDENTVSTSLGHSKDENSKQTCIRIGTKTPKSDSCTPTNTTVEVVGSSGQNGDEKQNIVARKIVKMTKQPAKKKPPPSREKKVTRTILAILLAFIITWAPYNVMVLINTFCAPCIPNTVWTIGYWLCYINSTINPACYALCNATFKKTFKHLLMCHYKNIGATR

[6] = target: Protein phosphatase 3 catalytic subunit alpha (Homo sapiens, UniProt Q08209); design: species or system Escherichia coli;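 further: inhibition of calcineurin (PP2B) enzyme activity, measured with DiFMUP as the substrate; in other assays of this panel Not Active means under 50% inhibition at 10 µM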

| SMILES | IC50 [1] | IC50 [2] | IC50 [3] | Ki [3] | IC50 [4] | IC50 [5] | IC50 [6] | pIC50 [4] | pKi [4] | pIC50 ([1]; read-out: IC50) | pKi ([1]; read-out: Ki) | pIC50 ([3]; read-out: IC50) | pKi ([3]; read-out: Ki) | pIC50 ([5]; read-out: IC50) | pKi ([5]; read-out: Ki) |
| --- | --- | --- | --- | --- | --- | --- | --- | --- | --- | --- | --- | --- | --- | --- | --- |
| COc1cc(NC(C)CCCN)c2ncccc2c1 (centres undefined) [PRIMAQUINE] | Not Active | Not Active | Not Active | Not Active | Not Active | Not Active | Not Active |  |  |  |  |  |  |  |  |
| O=C(O)COC(=O)Cc1ccccc1Nc1c(Cl)cccc1Cl [ACECLOFENAC] | Not Active | Not Active | Not Active | Not Active | Not Active | Not Active | Not Active |  |  |  |  |  |  |  |  |
| C#C[C@]1(O)CC[C@H]2[C@@H]3CCC4=CC(=O)CC[C@@H]4[C@H]3CC[C@@]21C [NORETHINDRONE] | Not Active | Not Active | Not Active | Not Active | Not Active | Not Active | Not Active |  |  |  |  |  |  |  |  |
| CC(C)(C#N)c1cc(Cn2cncn2)cc(C(C)(C)C#N)c1 [ANASTROZOLE] | Not Active | Not Active | Not Active | Not Active | Not Active | Not Active | Not Active |  |  |  |  |  |  |  |  |
| O=C(Nc1ccc(Cl)c(Cl)c1)c1cc(Cl)cc(Cl)c1O [3,3',4',5-TETRACHLOROSALICYLANILIDE] | Not Active | Not Active | Not Active | Not Active | Not Active | Not Active | Not Active |  |  |  |  |  |  |  |  |
| O=C(O)CO [GLYCOLIC ACID] | Not Active | Not Active | Not Active | Not Active | Not Active | Not Active | Not Active |  |  |  |  |  |  |  |  |
| COC(=O)C[C@](O)(CCC(C)(C)O)C(=O)O[C@@H]1C(OC)=C[C@]23CCCN2CCc2cc4c(cc2[C@H]13)OCO4 [HARRINGTONINE] | Not Active | Not Active | Not Active | Not Active | Not Active | Not Active | Not Active |  |  |  |  |  |  |  |  |
| CC(C)(c1ccc(O)cc1)c1ccc(O)cc1 [BISPHENOL A] | Not Active | Not Active | Not Active | Not Active |  | Not Active | Not Active | 5.27 | 5.60 |  |  |  |  |  |  |
| C=CCO [ALLYL ALCOHOL] | Not Active | Not Active | Not Active | Not Active | Not Active | Not Active | Not Active |  |  |  |  |  |  |  |  |
| C[C@]12CC[C@@H](O)C[C@@H]1CC[C@@H]1[C@@H]2CC[C@]2(C)C(=O)CC[C@@H]12 [ANDROSTERONE] | Not Active | Not Active | Not Active | Not Active | Not Active | Not Active | Not Active |  |  |  |  |  |  |  |  |
| COc1ccc(Cl)cc1C(=O)NCCc1ccc(S(=O)(=O)NC(=O)NC2CCCCC2)cc1 [GLYBURIDE] | Not Active | Not Active | Not Active | Not Active | Not Active | Not Active | Not Active |  |  |  |  |  |  |  |  |
| CC(CN1c2ccccc2Sc2ccccc21)N(C)C (centres undefined) [PROMETHAZINE] |  | Not Active |  |  |  |  | Not Active | 5.61 | 5.95 | 7.41 | 7.68 | 5.56 | 5.61 | 7.46 | 7.92 |
| C[N+](C)(C)CCOP(=O)([O-])OC[C@H](O)CO | Not Active | Not Active | Not Active | Not Active | Not Active | Not Active | Not Active |  |  |  |  |  |  |  |  |
| NCC(CC(=O)O)c1ccc(Cl)cc1 (centres undefined) [BACLOFEN] | Not Active | Not Active | Not Active | Not Active | Not Active | Not Active | Not Active |  |  |  |  |  |  |  |  |
| CC12CCC(CC1=O)C2(C)C (centres undefined) [CAMPHOR] | Not Active | Not Active | Not Active | Not Active | Not Active | Not Active | Not Active |  |  |  |  |  |  |  |  |
